ChEMBL document CHEMBL2062419, “Synthesis and antiviral activities of hexadecyloxypropyl prodrugs of acyclic nucleoside phosphonates containing guanine or hypoxanthine and a (S)-HPMP or PEE acyclic moiety” (Eur J Med Chem, 2012)
Active and inactive are the calls of the source. No cut-off for these calls is given here.

Legend:
Human alphaherpesvirus 3 [1] = experiment: Antiviral activity against thymidine kinase positive VZV OKa infected in HEL cells by plaque formation assay; assay type: functional, cell-based, Human herpesvirus 3 strain Oka vaccine; settings: Human alphaherpesvirus 3, OKa
Human alphaherpesvirus 3 [2] = experiment: Antiviral activity against thymidine kinase negative VZV 07/01 infected in HEL cells by plaque formation assay; assay type: functional, organism-based; settings: Human alphaherpesvirus 3, 07/01, HEL
Human alphaherpesvirus 1 [3] = experiment: Antiviral activity against HSV1 KOS infected in HEL cells by viral CPE assay; assay type: functional, organism-based; settings: Human alphaherpesvirus 1, KOS
Human alphaherpesvirus 2 = experiment: Antiviral activity against HSV2 G infected in HEL cells by viral CPE assay; assay type: functional, organism-based; settings: Human alphaherpesvirus 2, strain G
Human alphaherpesvirus 1 [4] = experiment: Antiviral activity against thymidine kinase negative and ACV resistant HSV1 KOS infected in HEL cells by viral CPE assay; assay type: functional, organism-based; settings: Human alphaherpesvirus 1, KOS
Human betaherpesvirus 5 [5] = experiment: Antiviral activity against HCMV AD169 infected in HEL cells by viral CPE assay; assay type: functional, organism-based; settings: Human betaherpesvirus 5, AD169, HEL
Human betaherpesvirus 5 [6] = experiment: Antiviral activity against HCMV Davis infected in HEL cells by viral CPE assay; assay type: functional, organism-based; settings: Human betaherpesvirus 5, Davis
Felid alphaherpesvirus 1 = experiment: Antiviral activity against Feline herpesvirus infected in CRFK cells by viral CPE assay; assay type: functional, organism-based; settings: Felid alphaherpesvirus 1, CRFK
Vaccinia virus = experiment: Antiviral activity against Vaccinia virus Lederie infected in HEL cells by viral CPE assay; assay type: functional, organism-based; settings: Orthopoxvirus vaccinia
[7] = Cytotoxicity against HEL cells assessed as effect on cell morphology incubated for 3 days by microscopy; assay type: cell-based; settings: human
HEL = experiment: Cytotoxicity against HEL cells assessed as effect on cell growth incubated for 3 days by Coulter counter assay; assay type: cell-based; settings: human, 72 h
[8] = test system: Human immunodeficiency virus 1; experiment: Antiviral activity against HIV1 3B infected in human CEM cells assessed as reduction in virus-induced CEM giant cell formation incubated for 4 days at 37 degC by microscopy; assay type: functional, organism-based; settings: CCRF-CEM
[9] = test system: Human immunodeficiency virus 2; experiment: Antiviral activity against HIV2 ROD infected in human CEM cells assessed as reduction in virus-induced CEM giant cell formation incubated for 4 days at 37 degC by microscopy; assay type: functional, organism-based; settings: ISOLATE ROD, CCRF-CEM
[10] = test system: Vesicular stomatitis virus; experiment: Antiviral activity against VSV by viral CPE assay; assay type: functional, organism-based
Coxsackievirus B4 = experiment: Antiviral activity against Human coxsackievirus B4 by viral CPE assay; assay type: functional, organism-based
[11] = test system: Respiratory syncytial virus; experiment: Antiviral activity against Respiratory syncytial virus Long by viral CPE assay; assay type: functional, organism-based
Human respirovirus 3 = experiment: Antiviral activity against Human parainfluenza virus 3 by viral CPE assay; assay type: functional, organism-based
[12] = test system: Mammalian orthoreovirus 1; experiment: Antiviral activity against Reovirus 1 by viral CPE assay; assay type: functional, organism-based
Sindbis virus = experiment: Antiviral activity against Sindbis virus by viral CPE assay; assay type: functional, organism-based
Punta Toro virus = experiment: Antiviral activity against Punta Toro virus by viral CPE assay; assay type: functional, organism-based
Human alphaherpesvirus 3 [13] = experiment: Antiviral activity against thymidine kinase positive VZV YS infected in HEL cells by plaque formation assay; assay type: functional, organism-based; settings: Human alphaherpesvirus 3, YS
[14] = Selectivity index, ratio of cytotoxic CC50 for HEL cells to EC50 for VZV YS
[15] = Selectivity index, ratio of cytotoxic CC50 for HEL cells to EC50 for VZV 07/01
[16] = Selectivity index, ratio of cytotoxic CC50 for HEL cells to EC50 for VZV Oka
[17] = Selectivity index, ratio of cytotoxic CC50 for HEL cells to EC50 for HSV1 KOS
[18] = Selectivity index, ratio of cytotoxic CC50 for HEL cells to EC50 for HSV2 G
[19] = Selectivity index, ratio of cytotoxic CC50 for HEL cells to EC50 for ACV resistant HSV1 KOS
[20] = Selectivity index, ratio of cytotoxic CC50 for HEL cells to EC50 for HCMV AD169
[21] = Selectivity index, ratio of cytotoxic CC50 for HEL cells to EC50 for HCMV Davis
[22] = Selectivity index, ratio of cytotoxic CC50 for HEL cells to EC50 for Vaccinia virus Lederie; assay type: toxicity, cell-based; settings: human, read-out: Ratio CC50/EC50

Compound | EC50 (Human alphaherpesvirus 3 [1]) [nM] | EC50 (Human alphaherpesvirus 3 [2]) [nM] | EC50 (Human alphaherpesvirus 1 [3]) [nM] | EC50 (Human alphaherpesvirus 2) [nM] | EC50 (Human alphaherpesvirus 1 [4]) [nM] | EC50 (Human betaherpesvirus 5 [5]) [nM] | EC50 (Human betaherpesvirus 5 [6]) [nM] | EC50 (Felid alphaherpesvirus 1) [µM] | EC50 (Vaccinia virus) [µM] | MCC at 72 h [7] [µM] | CC50 (HEL) [µM] | Activity [8] | Activity [9] | Activity [10] | Activity (Coxsackievirus B4) | Activity [11] | Activity (Human respirovirus 3) | Activity [12] | Activity (Sindbis virus) | Activity (Punta Toro virus) | further results
CCCCCCCCCCCCCCCCOCCCOP(=O)(CCOCCn1cnc2c(=O)[nH]c(N)nc21)OCCCOCCCCCCCCCCCCCCCC | > 23000 | > 23000 | > 115000 | > 115000 | > 115000 | > 23000 | > 23000 | > 115 | > 115 | ≥ 23 | > 115 | inactive | inactive | inactive | inactive | inactive | inactive | inactive | inactive | inactive | 
CCCCCCCCCCCCCCCCOCCCOP(=O)(O)CCOCCn1cnc2c(=O)[nH]cnc21 | > 35000 | > 35000 | > 35000 | > 35000 | > 35000 | > 35000 | > 35000 | > 35 | > 35 | 175 | 78 | inactive | inactive | inactive | inactive | inactive | inactive | inactive | inactive | inactive | 
Nc1nc(O)c2ncn(COC(CO)CO)c2n1 [GANCICLOVIR] |  |  |  | 29 |  |  |  | 1.15 | ≥ 93 | > 394 | 231 |  |  |  |  |  |  |  |  |  | 
CCCCCCCCCCCCCCCCOCCCOP(=O)(O)CCOCCn1cnc2c(=O)[nH]c(N)nc21 | 140 | 300 | 1370 | 1900 | 2800 | 130 | 60 | > 171 | ≥ 34 | ≥ 34 | 26 | inactive | inactive | inactive | inactive | inactive | inactive | inactive | inactive | inactive | EC50 (Human alphaherpesvirus 3 [13]): 190 nM; Ratio CC50/EC50 [14]: 137; Ratio CC50/EC50 [15]: 87; Ratio CC50/EC50 [16]: 186; Ratio CC50/EC50 [17]: 19; Ratio CC50/EC50 [18]: 14; Ratio CC50/EC50 [19]: 9; Ratio CC50/EC50 [20]: 200; Ratio CC50/EC50 [21]: 433; selectivity ratio [22]: < 1
Nc1ccn(C[C@@H](CO)OCP(=O)(O)O)c(=O)n1 [CIDOFOVIR] |  |  | 930 |  | 1750 | 1370 |  |  | 14 | > 317 | 241 |  |  |  |  |  |  |  |  |  | 
Nc1nc2c(ncn2COCCO)c(=O)[nH]1 [ACYCLOVIR] |  |  | 530 | 380 | ≥ 212000 |  |  |  | > 1000 | > 444 | 918 |  |  |  |  |  |  |  |  |  | 
CCCCCCCCCCCCCCCCOCCCOP(=O)(O)CO[C@H](CO)Cn1cnc2c(=O)[nH]c(N)nc21 | 2 | 1.7 | 8 | 7 | 12 | 6.6 | 2.2 | > 1.33 | 0.011 | ≥ 1.3 | 0.72 | inactive | inactive | inactive | inactive | inactive | inactive | inactive | inactive | inactive | EC50 (Human alphaherpesvirus 3 [13]): 2.5 nM; Ratio CC50/EC50 [14]: 288; Ratio CC50/EC50 [15]: 423; Ratio CC50/EC50 [16]: 360; Ratio CC50/EC50 [17]: 90; Ratio CC50/EC50 [18]: 103; Ratio CC50/EC50 [19]: 60; Ratio CC50/EC50 [20]: 109; Ratio CC50/EC50 [21]: 327; selectivity ratio [22]: 65
